ChEMBL document CHEMBL1126669, “A remarkable change of opioid receptor selectivity on the attachment of a peptidomimetic kappa address element to the delta antagonist, natrindole: 5'-[N2-alkylamidino)methyl]naltrindole derivatives as a novel class of kappa opioid receptor antagonists” (J Med Chem, 1993)

Columns and labels:
[1] = biological target: Opioid receptors; mu & kappa (Homo sapiens) (UniProt P41145+P35372); assay: Selectivity ratio is IC50 value of kappa-opioid receptor to that of mu-opioid receptor; type: protein assay
[2] = biological target: Opioid receptors; delta & kappa (Homo sapiens) (UniProt P41145+P41143); assay: Selectivity ratio is IC50 value of kappa-opioid receptor to that of delta-opioid receptor; type: protein assay
[3] = biological target: Mu-type opioid receptor (Cavia porcellus) (UniProt P97266); assay: Ratio of IC50 of morphine (M) in the presence (100 nM) to that of morphine (M) alone, against mu opioid receptor in Guinea pig ileum preparation.; type: tissue-based
[4] = biological target: Delta-type opioid receptor (Mus musculus) (UniProt P32300); assay: Ratio of IC50 of [D-Ala2,D-Leu5]enkephalin (DADLE) in the presence (100 nM) to that of [(DADLE) alone, against delta opioid receptor in mouse vas deferens preparation
[5] = biological target: Kappa-type opioid receptor (Cavia porcellus) (UniProt P41144); assay: Ratio of IC50 of ethylketazocine (EK) in the presence (100 nM) to that of ethylketazocine (EK) alone, against kappa opioid receptor in Guinea pig ileum preparation; type: tissue-based
[6] = biological target: Kappa-type opioid receptor (Cavia porcellus, UniProt P41144); assay: Binding affinity for k opioid receptor was determined using [3H]U-69593 radioligand in Guinea pig brain membranes; type: cell membranes, Membrane
Mu-type opioid receptor = Mu-type opioid receptor (Cavia porcellus, UniProt P97266); assay: Binding affinity for mu opioid receptor was determined using radioligand [3H][D-Ala2,MePhe4,Gly-ol6]enkephalin (DAMGO) in Guinea pig brain membranes.; type: cell membranes
Sequence of Mu-type opioid receptor (P97266 whole entry): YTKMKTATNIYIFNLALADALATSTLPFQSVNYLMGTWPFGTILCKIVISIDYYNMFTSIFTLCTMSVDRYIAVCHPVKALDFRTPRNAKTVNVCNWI

Sequence of Delta-type opioid receptor (Mus musculus) (P32300 whole entry): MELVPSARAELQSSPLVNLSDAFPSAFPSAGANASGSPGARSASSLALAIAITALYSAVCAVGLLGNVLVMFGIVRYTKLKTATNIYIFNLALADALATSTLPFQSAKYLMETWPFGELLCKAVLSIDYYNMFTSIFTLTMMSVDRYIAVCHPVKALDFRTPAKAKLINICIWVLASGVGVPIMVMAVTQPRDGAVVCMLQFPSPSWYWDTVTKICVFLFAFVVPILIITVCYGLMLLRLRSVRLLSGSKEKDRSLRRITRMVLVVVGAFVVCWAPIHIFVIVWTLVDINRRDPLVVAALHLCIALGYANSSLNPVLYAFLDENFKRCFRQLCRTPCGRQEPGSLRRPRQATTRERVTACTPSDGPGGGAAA
Sequence of Kappa-type opioid receptor (Cavia porcellus) (P41144 whole entry): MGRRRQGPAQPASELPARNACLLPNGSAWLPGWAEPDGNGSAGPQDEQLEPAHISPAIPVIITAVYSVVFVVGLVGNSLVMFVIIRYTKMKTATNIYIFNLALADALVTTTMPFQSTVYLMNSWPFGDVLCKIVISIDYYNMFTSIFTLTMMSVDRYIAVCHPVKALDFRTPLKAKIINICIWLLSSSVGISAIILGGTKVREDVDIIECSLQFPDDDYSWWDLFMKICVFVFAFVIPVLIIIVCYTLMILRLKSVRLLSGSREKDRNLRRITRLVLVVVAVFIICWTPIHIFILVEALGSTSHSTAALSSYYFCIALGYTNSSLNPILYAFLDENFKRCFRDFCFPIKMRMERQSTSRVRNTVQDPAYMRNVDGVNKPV
Sequence of Opioid receptors; delta & kappa (Homo sapiens) (P41143 whole entry, looked up): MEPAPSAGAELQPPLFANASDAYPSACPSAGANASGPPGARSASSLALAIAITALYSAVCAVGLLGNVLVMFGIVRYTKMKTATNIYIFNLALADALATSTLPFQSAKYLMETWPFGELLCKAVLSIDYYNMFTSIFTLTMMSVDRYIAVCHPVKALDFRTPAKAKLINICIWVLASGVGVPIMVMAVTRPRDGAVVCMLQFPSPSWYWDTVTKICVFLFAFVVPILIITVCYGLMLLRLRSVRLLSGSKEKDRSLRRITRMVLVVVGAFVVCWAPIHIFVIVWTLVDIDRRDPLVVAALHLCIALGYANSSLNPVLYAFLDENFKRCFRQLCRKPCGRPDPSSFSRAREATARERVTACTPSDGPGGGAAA
Sequence of Opioid receptors; delta & kappa (Homo sapiens) (P41145 whole entry, looked up): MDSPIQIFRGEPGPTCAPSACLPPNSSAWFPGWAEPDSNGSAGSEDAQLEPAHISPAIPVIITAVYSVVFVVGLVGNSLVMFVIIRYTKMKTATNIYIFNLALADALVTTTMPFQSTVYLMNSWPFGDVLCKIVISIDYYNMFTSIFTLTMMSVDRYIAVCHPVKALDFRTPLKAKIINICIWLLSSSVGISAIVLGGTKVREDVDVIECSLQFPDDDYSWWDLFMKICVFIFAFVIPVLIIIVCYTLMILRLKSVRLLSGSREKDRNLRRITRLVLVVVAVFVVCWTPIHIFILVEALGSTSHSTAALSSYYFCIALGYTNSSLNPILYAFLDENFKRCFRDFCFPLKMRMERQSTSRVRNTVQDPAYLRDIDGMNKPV
Sequence of Opioid receptors; mu & kappa (Homo sapiens) (P35372 whole entry, looked up): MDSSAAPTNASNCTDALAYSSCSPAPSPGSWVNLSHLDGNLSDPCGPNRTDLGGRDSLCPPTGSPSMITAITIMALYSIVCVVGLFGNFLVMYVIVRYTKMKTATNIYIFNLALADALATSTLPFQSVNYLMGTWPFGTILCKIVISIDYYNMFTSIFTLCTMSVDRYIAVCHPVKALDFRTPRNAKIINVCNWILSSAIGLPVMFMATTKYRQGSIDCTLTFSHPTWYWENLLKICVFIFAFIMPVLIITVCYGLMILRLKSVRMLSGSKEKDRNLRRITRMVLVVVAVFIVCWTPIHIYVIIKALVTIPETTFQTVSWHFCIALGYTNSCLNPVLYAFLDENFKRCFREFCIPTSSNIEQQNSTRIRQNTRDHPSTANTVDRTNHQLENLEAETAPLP
Sequence of Opioid receptors; mu & kappa (Homo sapiens) (P41145 whole entry, looked up): as the sequence (P41145 whole entry, looked up) above
Sequence of Mu-type opioid receptor (Cavia porcellus) (P97266 whole entry): as the sequence (P97266 whole entry) above
Sequence of Kappa-type opioid receptor (P41144 whole entry): as the sequence (P41144 whole entry) above

Compound	Selectivity ratio [1]	Selectivity ratio [2]	IC50 ratio [3]	IC50 ratio [4]	IC50 ratio [5]	Ki [6]	Ki (Mu-type opioid receptor)
CCCC(=N)NCc1ccc2[nH]c3c(c2c1)C[C@@]1(O)[C@H]2Cc4ccc(O)c5c4[C@@]1(CCN2CC1CC1)C3O5 (stereo partly specified)	10	62	19.3	3	185		
CCC(=N)NCc1ccc2[nH]c3c(c2c1)C[C@@]1(O)[C@H]2Cc4ccc(O)c5c4[C@@]1(CCN2CC1CC1)C3O5 (stereo partly specified)	14	69	11.3	2.28	159		
CCCCC(=N)NCc1ccc2[nH]c3c(c2c1)C[C@@]1(O)[C@H]2Cc4ccc(O)c5c4[C@@]1(CCN2CC1CC1)C3O5 (stereo partly specified)	28	93	15.7	4.71	439	0.061 nM	3.5 nM
Oc1ccc2c3c1O[C@H]1c4[nH]c5c(c4C[C@@]4(O)[C@@H](C2)N(CC2CC2)CC[C@]314)C[C@@]1(O)[C@H]2Cc3ccc(O)c4c3[C@@]1(CCN2CC1CC1)[C@H]5O4 [NORBINALTORPHIMINE]						0.28 nM	
Oc1ccc2c3c1O[C@H]1c4[nH]c5ccccc5c4C[C@@]4(O)[C@@H](C2)N(CC2CC2)CC[C@]314			11.2	459	1.3		
